Source: patent US20250215101A1, “DR5 Agonist and PLK1 Inhibitor or CDK Inhibitor Combination Therapy” (Inhibrx Biosciences, Inc., priority 2022, published 2025)
pEC50: −log10 of the molar value.

Legend:
Assay in all cases: Cytotoxicity assay, colorectal cancer cell line panel, onvansertib +/- 1 nM INBRX-109
Assay type in all cases: cell-based
LS 180 = conditions: for pEC50: Homo sapiens, LS180, LS 180; for Max Cytotox at 600 nM: LS 180
Method: (§1) Monolayer cultures of each cell line were harvested for compound screening as detailed below.
(§2) Also on day 2, test and control articles were added.
(§3) On day 4, viability measurements were taken. […] Data was graphed in GraphPad Prism 9.
(§4) The results for a panel of colorectal cancer cell lines are shown in Table 3 and FIGS. 4-6, and the results for a panel of pancreatic cell lines are shown in Table 4 and FIGS. 7 and 8.

SW620 = conditions: for pEC50: Homo sapiens, SW-620, SW620; for Max Cytotox at 600 nM: SW620
Method: as §1, §2, §3, §4

NCI-H747 = conditions: for pEC50: Homo sapiens, NCI-H747, NCI-H747; for Max Cytotox at 600 nM: NCI-H747
Method: as §1, §2, §3, §4

LS174T = conditions: for pEC50: Homo sapiens
Method: as §1, §2, §3, §4

HCT 116 = conditions: for Max Cytotox at 600 nM: HCT 116; for pEC50: Homo sapiens, HCT-116, HCT 116
Method: as §1, §2, §3, §4

SNU-81 = tested on: SNU-81
Method: as §1, §2, §3, §4

SNU-C5 = tested on: SNU-C5
Method: as §1, §2, §3, §4

SW-1116 = conditions: for pEC50: Homo sapiens, SW 1116, SW-1116; for Max Cytotox at 600 nM: SW-1116
Method: as §1, §2, §3, §4

SW-48 = conditions: for pEC50: Homo sapiens, SW48, SW-48; for Max Cytotox at 600 nM: SW-48
Method: as §1, §2, §3, §4

HT-29 = conditions: for Max Cytotox at 600 nM: HT-29; for pEC50: Homo sapiens, HT-29, HT-29
Method: as §1, §2, §3, §4

HCT-8 = conditions: for Max Cytotox at 600 nM: HCT-8; for pEC50: Homo sapiens, HCT-8, HCT-8
Method: as §1, §2, §3, §4

LS 513 = conditions: for pEC50: Homo sapiens, LS-513, LS 513; for Max Cytotox at 600 nM: LS 513
Method: as §1, §2, §3, §4

HCT-15 = conditions: for Max Cytotox at 600 nM: HCT-15; for pEC50: Homo sapiens, HCT-15, HCT-15
Method: as §1, §2, §3, §4

LS 1034 = conditions: for pEC50: Homo sapiens, LS-1034, LS 1034; for Max Cytotox at 600 nM: LS 1034
Method: as §1, §2, §3, §4

## CN1CCN(c2ccc(OC(F)(F)F)c(Nc3ncc4c(n3)-c3c(c(C(N)=O)nn3CCO)CC4)c2)CC1 [Onvansertib]
LS 180; onvansertib + 1 nM INBRX-109
  pEC50: 6.71
  Max Cytotox at 600 nM: 86.2%
LS 180; onvansertib only
  pEC50: 6.30
  Max Cytotox at 600 nM: 42.9%
SW620; onvansertib + 1 nM INBRX-109
  pEC50: 7.26
  Max Cytotox at 600 nM: 90.4%
SW620; onvansertib only
  pEC50: 7.21
  Max Cytotox at 600 nM: 61.8%
NCI-H747; onvansertib + 1 nM INBRX-109
  pEC50: 7.10
  Max Cytotox at 600 nM: 44.5%
NCI-H747; onvansertib only
  pEC50: 7.15
  Max Cytotox at 600 nM: 17.4%
LS174T; onvansertib + 1 nM INBRX-109
  pEC50: 6.96
  Max Cytotox at 600 nM: 94.1%
LS174T; onvansertib only
  pEC50: 6.60
  Max Cytotox at 600 nM: 59.5%
HCT 116; onvansertib + 1 nM INBRX-109
  Max Cytotox at 600 nM: 96.6%
  pEC50: 7.18
HCT 116; onvansertib only
  Max Cytotox at 600 nM: 76.0%
  pEC50: 6.95
SNU-81; onvansertib + 1 nM INBRX-109
  pEC50: 7.14
  Max Cytotox at 600 nM: 92.3%
SNU-81; onvansertib only
  pEC50: 6.73
  Max Cytotox at 600 nM: 24.3%
SNU-C5; onvansertib + 1 nM INBRX-109
  pEC50: 7.24
  Max Cytotox at 600 nM: 87.7%
SNU-C5; onvansertib only
  pEC50: 7.02
  Max Cytotox at 600 nM: 42.9%
SW-1116; onvansertib + 1 nM INBRX-109
  pEC50: 6.39
  Max Cytotox at 600 nM: 39.4%
SW-1116; onvansertib only
  pEC50: 6.36
  Max Cytotox at 600 nM: 10.4%
SW-48; onvansertib + 1 nM INBRX-109
  pEC50: 7.55
  Max Cytotox at 600 nM: 99.4%
SW-48; onvansertib only
  pEC50: 7.43
  Max Cytotox at 600 nM: 76.6%
HT-29; onvansertib + 1 nM INBRX-109
  Max Cytotox at 600 nM: 98.3%
  pEC50: 7.37
HT-29; onvansertib only
  Max Cytotox at 600 nM: 45.6%
  pEC50: 7.21
HCT-8; onvansertib + 1 nM INBRX-109
  Max Cytotox at 600 nM: 81.3%
  pEC50: 6.70
HCT-8; onvansertib only
  Max Cytotox at 600 nM: 52.7%
  pEC50: 6.69
LS 513; onvansertib + 1 nM INBRX-109
  pEC50: 7.00
  Max Cytotox at 600 nM: 93.7%
LS 513; onvansertib only
  pEC50: 6.67
  Max Cytotox at 600 nM: 39.6%
HCT-15; onvansertib + 1 nM INBRX-109
  Max Cytotox at 600 nM: 94.9%
  pEC50: 6.76
HCT-15; onvansertib only
  Max Cytotox at 600 nM: 61.4%
  pEC50: 6.57
LS 1034; onvansertib + 1 nM INBRX-109
  pEC50: 6.70
  Max Cytotox at 600 nM: 85.8%
LS 1034; onvansertib only
  pEC50: 6.63
  Max Cytotox at 600 nM: 38.8%
